Data on six compounds can be found in PMC8875508, “Cytotoxic Phenylpropanoid Derivatives and Alkaloids from the Flowers of Pancratium maritimum L” (Plants, 2022).

Holding throughout (assay type): cell-based
The subject of one assay is MDA-MB-231 cells. The assay can be described thus: MTT antiproliferative assay, MDA-MB-231. Conditions: Homo sapiens, 72 h, mean of three independent experiments, cutoff 10 µM, read-out: IC50 (Mean + SEM). The method, then:
(§1) HCT116 (Colorectal carcinoma, ATCC CCL-247) and HeLa (human cervical carcinoma, ATCC CCL-2) cells were cultured in RPMI 1640 medium with 10% FBS, and 1% penicillin–streptomycin, while MDA-MB-231 cells (triple-negative breast cancer, ATCC HTB-26) were cultured in DMEM medium with 1% penicillin–streptomycin and 10% FBS.
(§2) The evaluation of the antiproliferative effects compounds 1–7 were performed using MTT assay, as reported earlier. In short, the cells were incubated at 37 °C overnight in 5% CO2/air. After that, the compounds were added at the top row of a 96-well microtiter plate; a descendant serial dilution (1:4) of the concentration was performed followed by incubation of the cells with the compounds for 72 h. Using the Cell Titer 96 AQueous non-radioactive cell proliferation protocol, the cell viability was estimated at 490 nm on a Molecular Devices Emax microplate reader. The IC50 values of the compounds (expressed in μM) were evaluated using the program SoftMax Pro. A concentration of 10 µM was set as a cutoff value in this assay.
In general terms: Formazan colour is commonly taken as a measure of viable cells.

The test system of another assay is HeLa cells. Kind of assay: MTT antiproliferative assay, HeLa. To be noted: Homo sapiens, 72 h, mean of three independent experiments, cutoff 10 µM, read-out: IC50 (Mean + SEM). The method, then:
as §1, §2

In a further assay the test system is HCT 116 cells. Kind of assay: MTT antiproliferative assay, HCT 116. To be noted: Homo sapiens, 72 h, mean of three independent experiments, cutoff 10 µM, read-out: IC50 (Mean + SEM). The method, then:
as §1, §2

Assay [1] has as its system normal human dermal fibroblasts (NHDF). Kind of assay: MTT assay, normal human dermal fibroblasts. As to the method: The normal human dermal fibroblasts (NHDF) cells were cultured in fibroblast basal medium complemented with penicillin–streptomycin (1% v/v), insulin (5 µg/mL), heat-inactivated fetal bovine serum (FBS) (2% v/v), and basic fibroblast growth factor (1 ng/mL).
as §2

In assay [2] the test system is HCT116, HeLa, and MDA-MB-231 cell lines. Kind of assay: MTT assay, average over the cancerous cell lines. Conditions: Homo sapiens; average of HCT116, HeLa and MDA-MB-231; read-out: average IC50 against the cancerous cell lines. The method, then: as §1, §2

Each structure is given as a SMILES string.

What is called IC50 is the point on the concentration scale where inhibition reaches its midpoint.

For the compound `COC(=O)/C=C\c1ccc(O[C@@H]2O[C@H](CO)[C@@H](O)[C@H](O)[C@H]2O)cc1` [Compound 1, 3-[4-(β-D-glucopyranosyloxy)phenyl]-2-(Z)-propenoic acid methyl ester], the IC50 with MDA-MB-231 cells, in the assay on HeLa cells and in the assay on HCT 116 cells was ≥ 10 µM in each case.

Regarding `COC(=O)c1ccc(O[C@@H]2O[C@H](CO)[C@@H](O)[C@H](O)[C@H]2O)c(OC)c1` [Compound 2, 3-methoxy-4-(β-D-glucopyranosyloxy)benzoic acid methyl ester], the IC50 in the assay with MDA-MB-231 cells, with HeLa cells and with HCT 116 cells was ≥ 10 µM in each case.

In the case of `COc1ccc(CCCO[C@@H]2O[C@H](CO)[C@@H](O)[C@H](O)[C@H]2O)cc1` [Compound 3, 3-(4-methoxyphenyl)propan-1-ol-1-O-β-D-glucopyranoside], the IC50 in the assay with MDA-MB-231 cells, with HeLa cells and in the assay on HCT 116 cells was ≥ 10 µM in each case.

As for `O=C(O)/C=C/c1ccc(O)c(O)c1` [Compound 5, caffeic acid], the IC50 in the assay with MDA-MB-231 cells, in the assay on HeLa cells and with HCT 116 cells was ≥ 10 µM throughout.

Consider `O=c1[nH]cc(F)c(=O)[nH]1` [Compound 5-FU, 5-Fluorouracil, reference compound], for which the half-maximal inhibitory concentration (IC50) in the assay on MDA-MB-231 cells is 13 ± 0.3 µM; in the assay on HeLa cells, 12.3 ± 0.25 µM; with HCT 116 cells it was 4.6 ± 0.23 µM.

As for `O=C1N[C@H]2[C@H](O)[C@H](O)[C@@H](O)[C@H](O)[C@@H]2c2cc3c(c(O)c21)OCO3` [Compound 7, pancratistatin], the IC50 came out at 0.14 ± 0.002 µM in the assay on MDA-MB-231 cells; 0.058 ± 0.001 µM in the assay with HeLa cells; 0.1 ± 0.005 µM in the assay on HCT 116 cells; 6.6 ± 0.034 µM in assay [1] (Homo sapiens, NHDF, MTT, 72 h, mean of three independent experiments, read-out: IC50 (Mean + SEM)); 0.099 µM in assay [2]. Moreover, the “selectivity towards the tested cancer cell lines versus NHDF” value in assay [1] (NHDF IC50 6.6 µM versus average IC50 0.099 µM of the cancer cell lines) turned out to be 66 fold.
